Read-outs that look alike come from different tables or passages of the source.

The source of these data is paper PMC8861050, “Design, synthesis and evaluation of novel 2-oxoindoline-based acetohydrazides as antitumor agents” (Scientific Reports, 2022).

For one data set, the system named is SW620 (colon cancer). The experiment in a line: SRB cytotoxicity assay, SW620. Format: cell-based. Conditions: Homo sapiens, SW-620, 48 h incubation, mean ± SEM of 3 independent experiments. The source says: (§1) Three human cancer cell lines: colon cancer (SW620), prostate cancer (PC3), and lung cancer (NCI-H23) were used for sceening the cytotoxicity of the compounds. The cancer cells were purchased from American Type Culture Collection (Manassas, VA, USA). Other reagents/media for cell culture were obtained from GIBCO (Grand Island, New York, USA). The testing cancer cells were culture in Dulbecco’s Modified Eagle Medium until confluence. Then, they were trypsinized and suspended at the level of 3 × 10^4 cells/mL of cell culture medium. On day 0, cancer cells were seeded at a volume of 180 µL/well of 96-well plates and incubated for 24 h at 37 °C in a 5% CO2 incubator. On day 1, 20 µL of various concentrations of testing compounds were added to each well of the 96-well plates. Chemicals were dissolved in dimethyl sulfoxide (DMSO, stock) and diluted in culture medium (1% DMSO) before adding to the culture. After 48 h incubation, the sulforhodamine B assay was used for cell density determination with slight modifications[22]–[26]. The Probits were used for the calculation of IC50 values. The reported IC50 were the averages of three independent screening (SD ≤ 10%)[27].
(§2) Two series of compounds synthesized (4a–p and 5a–f) were evaluated for their cytotoxicity against three human cancer cell lines, including SW620 (colon cancer), PC3 (prostate cancer), NCI-H23 (lung cancer), using SRB method as described previously[22] with slight modifications[23]–[26].

For data set [1], the system named is PC3 (prostate cancer). The experiment in a line: SRB cytotoxicity assay, PC3. The note with it: Homo sapiens, 48 h incubation, mean ± SEM of 3 independent experiments. It counts as cell-based.
Source text: as §1, §2
In general terms: In SRB staining, fixed cells bind dye roughly in proportion to their protein.

Data set [2] relates to NCI-H23 (lung cancer). The data set can be described thus: SRB cytotoxicity assay, NCI-H23. Format: cell-based. Conditions: Homo sapiens, 48 h incubation, mean ± SEM of 3 independent experiments.
Source text: as §1, §2

Data set [3] in a line: Cytotoxicity on normal mesenchymal stem cells. It counts as cell-based. Conditions: human bone marrow-derived mesenchymal stem cells; mean ± SEM; read-out: Cytotoxicity (IC50) MSCs. Here is the method: Overally, 5-fluorinated compounds (4i–p and 5d–f) were slightly more cytotoxic than non-fluorinated ones (4a–h, 5a–c). For compounds in series 4a–p, it was observed that, electron-releasing substituents (–OCH3, OH) were generally better than electron-withdrawing groups (–Cl) for cytotoxicity. Especially, compounds with 2-OH substituents produced the best cytotoxicity. The addition of either 4-OCH3 or 3-allyl groups further enhanced cytotoxicity of the related compounds (4g, 4h and 4o, 4p).

A further data set addresses T1, caspase-3 (Homo sapiens, UniProt P42574).
T1 construct: endogenous in cells; host or cells: U937 human lymphoma cells
T1 sequence (P42574 1-277): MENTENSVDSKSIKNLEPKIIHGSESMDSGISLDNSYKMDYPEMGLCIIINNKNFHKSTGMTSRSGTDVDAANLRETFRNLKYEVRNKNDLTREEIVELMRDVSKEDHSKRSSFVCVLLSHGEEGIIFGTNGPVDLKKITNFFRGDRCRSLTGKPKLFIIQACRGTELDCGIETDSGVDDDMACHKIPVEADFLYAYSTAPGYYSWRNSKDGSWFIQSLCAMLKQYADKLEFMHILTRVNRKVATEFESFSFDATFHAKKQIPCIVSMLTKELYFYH
The experiment in a line: Caspase-3 activation assay in U937 cell extract. It counts as cell-based. The note with it: U937 cells, 24 h, 50 µM. Here is the method:
Caspase-3 activation assay
Caspase activity was measured by using caspase 3 assay kit according to the manufacturer’s instructions (abcam, MA, USA). U937 human lymphoma cells (5 × 10^5/mL per well) were plated in 6-well culture plates and allowed to grow for 24 h. The cells were treated with compounds for 24 h, and then harvested. The harvested cells were washed twice with ice-cold PBS and treated with lysis buffer included in the kit. Cell lysate (100 µg/50 µL) was mixed with 50 µL of 2 × reaction buffer and 5 µL of DEVD-p-NA substrate as the instruction of caspase-3 assay kit (Abcam, cat. N. ab39401). […] was measured after one-hour incubation.
Next, we selected 5 representative compounds, including 4f, 4h, 4n, 4o and 4p, to investigate their effects on the caspase activity, cell cycle, and apoptosis. […] Thus, we used the extract of U937 cells in caspase-3 activation assay, referring to our previous study. […] However, our compounds unexpectedly were not recorded to activate caspase-3 activity. […] Next, we investigated the effect of PAC-1 and our chemicals on cell cycle and apoptosis by using U937 cells. In the cell cycle analysis, U937 cells were treated with 50 µM of compounds for 24 h, stained with propidium iodide (PI) in the presence of RNase, and then analyzed for DNA content by using flow cytometry. PAC-1 was used in parallel as a positive control.

Data set [4] has as its system U937 human lymphoma cells. The experiment in a line: Cell cycle analysis (PI, flow cytometry). The note with it: 50 µM, 24 h. It counts as cell-based. Here is the method:
U937 human lymphoma cells (5 × 10^5/mL per well) were plated in 6-well culture plates and allowed to grow for 24 h. In our first experiment, we examined the effects of 4f, 4h, 4n, 4o, 4p, and PAC-1 on cell cycles at 50 µM. In the second experiment, we examined the dose-dependent effect of 4o at 5, 10, and 30 µM and PAC-1 at 30 µM on cell cycles. The cells were treated with compounds for 24 h, and then harvested. The harvested cells were washed twice with ice-cold PBS, fixed in 75% ice-cold ethanol, and stained with propidium iodide (PI) in the presence of RNase at room temperature for 30 min. The stained cells were analyzed for DNA content using a FACScalibur flow cytometer (BD Biosciences, San Jose, CA, USA) and the data were processed using Cell Quest Pro software (BD Biosciences).
Figure 3 Cell cycle analysis after treatment with some compounds. U937 human lymphoma cells were treated with compounds (50 µM) for 24 h. The harvested cells were stained with propidium iodide (PI) in the presence of RNase and then were analyzed for DNA content by using flow cytometry. Ten thousand cells were acquired (n = 3). UN untreated, VH vehicle (DMSO. 0.1%). Representative histograms (A) and bar graphs (B) are shown. p values were calculated using one-way ANOVA in GraphPad Software (San Diego, CA, USA). *p < 0.01 vs VH control.
Figure 4 Cell cycle analysis under treatment with different concentrations of compound 4o. U937 human lymphoma cells were treated with compound 4o at 5, 10 and 30 µM or PAC-1 (30 µM) for 24 h. The harvested cells were stained with propidium iodide (PI) in the presence of RNase and then were analyzed for DNA content by using flow cytometry. Ten thousand cells were acquired (n = 3). UN untreated, VH vehicle (DMSO. 0.1%). Representative histograms (A) and bar graphs (B) are shown. p values were calculated using one-way ANOVA in GraphPad Software (San Diego, CA, USA). *p < 0.01 vs VH control.
On the technique in general: Flow cytometry measures light scatter and fluorescence of single cells or particles in a stream.

The next data set has as its system SW620 cells. The experiment in a line: Morphology changes of treated cells. It counts as cell-based, human. The note with it: 24 h treatment (50 μM; 4o 5, 10, 30 μM; PAC-1 30 μM). Here is the method:
Figure 7 Morphology changes of cells treated with compound 4f, 4h, 4n, 4o, 4p or PAC-1. SW620 at 2.5 × 10^5 cells/mL (500 µL in 24 well) were incubated for 24 h and then further treated with compounds or PAC-1 (50 μM) for 24 h. Cells were photographed using an Imaging Device (Celldiscoverer 7) with ×20 (A) and ×40 (B) lens. Scale bar: […]. UN untreated, VH vehicle (DMSO. 0.1%). Representative images are shown.
Figure 8 Morphology changes of cells treated with compound 4o or PAC-1. SW620 at 2.5 × 10^5 cells/mL (500 µL in 24 well) were incubated for 24 h and then further treated with 4o (5, 10, and 30 μM) or PAC-1 (30 μM) for 24 h. Cells were photographed using an Imaging Device (Celldiscoverer 7) with ×20 (A) and ×40 (B) lens. Scale bar: […]. UN untreated, VH vehicle (DMSO. 0.1%). Representative images are shown.

The next data set deals with U937 cells. On the set-up: method as in PMID 34674294. Conditions: 48 h, as reported, read-out: IC50 in 48-h-cytotoxicity assay; cited from earlier work.
The test system of data set [5] is PC3 (prostate cancer). More on the design: method as in PMID 30054973. Conditions: positive control, for relative comparison; read-out: Cytotoxicity (IC50) PC3; cited from earlier work.
The test system of data set [6] is NCI-H23 (lung cancer). On the set-up: method as in PMID 30054973. Conditions: positive control, for relative comparison; read-out: Cytotoxicity (IC50) NCI-H23; cited from earlier work.

By IC50 is commonly meant the concentration that gives 50% inhibition. Take `C=CCc1cccc(/C=N/NC(=O)CN2CCN(Cc3ccccc3)CC2)c1O` [PAC-1, reference compound]: the IC50 was 5.43 ± 0.18 µM in the data set with SW620 (colon cancer); 4.11 ± 0.39 µM with PC3 (prostate cancer) [1]; 5.11 ± 0.22 µM in the data set on NCI-H23 (lung cancer) [2]; 9.22 ± 0.12 µM in data set [3]; 8.47 µM in the data set with U937 cells. For the same compound, the Caspase-3 activation entry on caspase-3 is recorded as “activated caspase-3”. Also, the “Effect on cell cycle distribution” value in data set [4] is “accumulation of cells in G0/G1 phase”. The Cellular morphology result in the data set on SW620 cells is “showed morphology of apoptotic cells”.

As for `O=c1[nH]cc(F)c(=O)[nH]1` [Compound 5-FU, 5-Fluorouracil], the results for the concentration for half-maximal inhibition (IC50) in the data set on PC3 (prostate cancer) [5] and in the data set on NCI-H23 (lung cancer) [6] were 13.6 ± 0.46 µM and 13.5 ± 3.92 µM, respectively.
